Experimental data from PMC5434891, “Tetramethylpyrazine blocks TFAM degradation and up-regulates mitochondrial DNA copy number by interacting with TFAM” (Bioscience Reports, 2017).
Each block holds one molecule with its values, some of them ahead of it.

Experiments:
[1] = biological target: T1, Lon (human mitochondrial Lon protease) (Homo sapiens, UniProt P36776); assay: ADP-Glo ATPase assay with purified Lon; about […] activity left at […]; format: biochemical
T1 construct: gene LONP1
T1 sequence (P36776 68-959): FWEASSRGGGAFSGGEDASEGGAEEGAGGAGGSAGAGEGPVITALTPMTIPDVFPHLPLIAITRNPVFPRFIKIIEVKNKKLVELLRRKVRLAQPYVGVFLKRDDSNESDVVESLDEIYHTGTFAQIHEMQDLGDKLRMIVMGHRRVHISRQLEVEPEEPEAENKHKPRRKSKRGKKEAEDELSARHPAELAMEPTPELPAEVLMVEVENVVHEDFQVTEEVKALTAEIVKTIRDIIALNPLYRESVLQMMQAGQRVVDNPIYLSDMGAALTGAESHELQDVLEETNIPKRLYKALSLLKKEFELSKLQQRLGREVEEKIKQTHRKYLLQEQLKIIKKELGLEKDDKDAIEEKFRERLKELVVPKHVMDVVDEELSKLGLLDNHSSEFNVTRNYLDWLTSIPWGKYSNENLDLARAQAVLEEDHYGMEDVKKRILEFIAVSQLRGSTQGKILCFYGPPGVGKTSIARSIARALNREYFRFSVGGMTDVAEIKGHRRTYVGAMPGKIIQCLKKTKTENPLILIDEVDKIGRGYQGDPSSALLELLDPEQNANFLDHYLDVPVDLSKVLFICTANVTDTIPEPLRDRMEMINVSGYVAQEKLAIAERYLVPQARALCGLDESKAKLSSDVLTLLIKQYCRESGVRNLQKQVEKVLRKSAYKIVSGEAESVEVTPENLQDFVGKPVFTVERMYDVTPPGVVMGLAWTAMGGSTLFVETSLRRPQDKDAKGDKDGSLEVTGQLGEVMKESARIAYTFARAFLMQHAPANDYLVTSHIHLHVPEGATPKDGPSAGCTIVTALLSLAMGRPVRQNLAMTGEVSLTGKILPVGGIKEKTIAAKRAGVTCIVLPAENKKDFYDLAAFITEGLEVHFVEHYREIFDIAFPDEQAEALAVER

[2] = biological target: T2, TFAM (mitochondrial transcription factor A) (Homo sapiens, UniProt Q00059); assay: protection of purified TFAM from degradation by purified Lon (Western blot); binding itself shown only with the biotinylated conjugate; format: biochemical
T2 sequence (Q00059 43-246): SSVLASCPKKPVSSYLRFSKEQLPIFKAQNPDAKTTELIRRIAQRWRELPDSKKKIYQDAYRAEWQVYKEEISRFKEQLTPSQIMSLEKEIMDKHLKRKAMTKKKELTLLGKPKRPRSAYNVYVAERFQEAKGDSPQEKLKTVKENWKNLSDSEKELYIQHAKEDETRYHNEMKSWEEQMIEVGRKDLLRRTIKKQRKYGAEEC
T2 sequence (P36776 68-959 partner): T1 sequence (P36776 68-959)

[3] = biological target: T3, TFAM (mitochondrial transcription factor A) (Homo sapiens, UniProt Q00059); assay: streptavidin-sepharose pull-down from cell extracts, immunoblot ([…]); format: cell-based
T3 construct: endogenous TFAM in HeLa ρ+ and HCT116 cell extracts
T3 sequence (Q00059 43-246): T2 sequence (Q00059 43-246)

Compound: CC1(C)CC[C@]2(C(=O)O)CC[C@]3(C)[C@H](C(=O)C=C4[C@@]5(C)C=C(C#N)C(=O)C(C)(C)[C@@H]5CC[C@]43C)[C@@H]2C1 [CDDO, 2-cyano-3,12-dioxooleana-1,9(11)-dien-28-oic acid]
ADP-Glo ATPase assay with purified Lon; about 10% activity left at 200 μM [1]: CDDO inhibited the ATPase activity of Lon in a dose-dependent manner

protection of purified TFAM from degradation by purified Lon (Western blot); bin [2]: ~ 20 mM
Compound: Cc1nc(C)c(C)nc1C [TMP, 2,3,5,6-tetramethylpyrazine]

Compound: Cc1nc(C)c(COC(=O)CCCC[C@@H]2SC[C@@H]3NC(=O)N[C@@H]32)nc1C [biotinylated TMP]
streptavidin-sepharose pull-down from cell extracts, immunoblot (10 μM) [3]: TFAM was specifically pulled down only in complexes containing biotinylated-TMP and SA-sepharose
